Experimental data as given in publication PMC6458995, “MAP4K4 Inhibition Promotes Survival of Human Stem Cell-Derived Cardiomyocytes and Reduces Infarct Size In Vivo” (Cell Stem Cell, 2019).

Legend:
Assay in all cases: Dundee kinase panel
Type in all cases: biochemical
Conditions in all cases: for remaining activity at 1 µM: read-out: residual activity
GSK3b = target: T1, GSK3b (Homo sapiens, UniProt P49841)
T1 construct: lines 1-140) and Reaction Biology
Description: (§1) Compounds were screened at 1 μM. For key hits, pIC50 values were then determined by HTRF as above. […] Stability in mouse and human liver microsomes was determined by Cyprotex.

IKKb = target: T2, IKKb (Homo sapiens, UniProt O14920)
T2 construct: lines 1-140) and Reaction Biology
T2 sequence (O14920 1-756): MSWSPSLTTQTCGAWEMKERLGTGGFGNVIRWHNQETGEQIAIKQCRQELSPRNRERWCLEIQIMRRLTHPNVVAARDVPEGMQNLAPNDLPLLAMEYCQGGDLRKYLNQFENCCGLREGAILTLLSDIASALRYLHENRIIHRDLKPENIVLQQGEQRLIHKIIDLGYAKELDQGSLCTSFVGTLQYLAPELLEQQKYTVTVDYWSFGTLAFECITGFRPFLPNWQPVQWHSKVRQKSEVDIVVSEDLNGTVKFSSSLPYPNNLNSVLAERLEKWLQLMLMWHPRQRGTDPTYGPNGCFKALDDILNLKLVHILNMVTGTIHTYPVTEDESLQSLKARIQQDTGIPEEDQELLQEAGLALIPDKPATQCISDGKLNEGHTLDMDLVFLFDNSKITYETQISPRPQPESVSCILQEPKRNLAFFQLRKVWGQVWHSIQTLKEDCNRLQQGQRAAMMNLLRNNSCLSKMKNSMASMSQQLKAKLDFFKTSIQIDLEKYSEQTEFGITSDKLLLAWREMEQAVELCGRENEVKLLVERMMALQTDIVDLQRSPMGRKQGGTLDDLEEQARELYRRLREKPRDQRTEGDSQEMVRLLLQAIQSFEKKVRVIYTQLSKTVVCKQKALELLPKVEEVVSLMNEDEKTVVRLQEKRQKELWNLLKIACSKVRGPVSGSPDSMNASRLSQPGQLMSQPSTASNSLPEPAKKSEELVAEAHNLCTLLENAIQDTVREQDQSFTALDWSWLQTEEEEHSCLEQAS
Description: as §1

MELK = target: T3, MELK (Homo sapiens, UniProt Q14680)
T3 construct: lines 1-140) and Reaction Biology
T3 sequence (Q14680 whole entry): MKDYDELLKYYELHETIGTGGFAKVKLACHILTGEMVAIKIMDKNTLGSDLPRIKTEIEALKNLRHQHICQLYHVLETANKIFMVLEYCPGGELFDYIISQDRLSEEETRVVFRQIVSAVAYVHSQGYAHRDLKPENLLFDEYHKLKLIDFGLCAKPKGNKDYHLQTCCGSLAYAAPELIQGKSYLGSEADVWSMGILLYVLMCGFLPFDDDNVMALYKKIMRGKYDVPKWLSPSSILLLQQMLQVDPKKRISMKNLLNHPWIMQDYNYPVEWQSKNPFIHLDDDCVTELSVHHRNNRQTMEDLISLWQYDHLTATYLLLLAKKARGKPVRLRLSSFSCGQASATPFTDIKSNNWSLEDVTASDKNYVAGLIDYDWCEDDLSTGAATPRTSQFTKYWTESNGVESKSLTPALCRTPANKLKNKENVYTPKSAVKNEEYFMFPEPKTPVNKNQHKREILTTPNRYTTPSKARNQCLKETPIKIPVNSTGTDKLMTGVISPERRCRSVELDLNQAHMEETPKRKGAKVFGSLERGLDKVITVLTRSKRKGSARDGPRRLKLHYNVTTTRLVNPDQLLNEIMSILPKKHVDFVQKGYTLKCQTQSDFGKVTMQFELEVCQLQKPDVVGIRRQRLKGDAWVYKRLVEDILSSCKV
Description: as §1

MKK6 = target: T4, MKK6 (Homo sapiens, UniProt P52564)
T4 construct: lines 1-140) and Reaction Biology
T4 sequence (P52564 1-334): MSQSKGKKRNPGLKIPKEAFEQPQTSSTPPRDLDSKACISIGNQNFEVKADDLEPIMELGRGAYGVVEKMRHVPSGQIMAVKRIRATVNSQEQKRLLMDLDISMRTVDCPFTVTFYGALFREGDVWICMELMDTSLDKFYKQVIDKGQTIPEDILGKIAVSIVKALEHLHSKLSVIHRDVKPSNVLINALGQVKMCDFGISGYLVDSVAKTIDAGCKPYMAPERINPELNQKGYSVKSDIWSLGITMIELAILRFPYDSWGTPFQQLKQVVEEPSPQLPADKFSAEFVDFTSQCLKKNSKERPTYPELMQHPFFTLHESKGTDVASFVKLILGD
Description: as §1

PIM2 = target: T5, PIM2 (Homo sapiens, UniProt Q9P1W9)
T5 construct: lines 1-140) and Reaction Biology
T5 sequence (Q9P1W9 whole entry): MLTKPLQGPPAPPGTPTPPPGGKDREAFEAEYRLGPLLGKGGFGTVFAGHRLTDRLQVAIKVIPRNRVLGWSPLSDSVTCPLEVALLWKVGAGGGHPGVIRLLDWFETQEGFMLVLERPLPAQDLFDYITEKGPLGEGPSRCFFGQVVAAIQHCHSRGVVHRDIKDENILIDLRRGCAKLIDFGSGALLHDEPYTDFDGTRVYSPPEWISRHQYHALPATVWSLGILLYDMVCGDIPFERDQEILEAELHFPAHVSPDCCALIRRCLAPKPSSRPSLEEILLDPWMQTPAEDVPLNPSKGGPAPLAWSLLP
Description: as §1

PKD1 = target: T6, PKD1 (Homo sapiens, UniProt Q15139)
T6 construct: lines 1-140) and Reaction Biology
T6 sequence (Q15139 1-912): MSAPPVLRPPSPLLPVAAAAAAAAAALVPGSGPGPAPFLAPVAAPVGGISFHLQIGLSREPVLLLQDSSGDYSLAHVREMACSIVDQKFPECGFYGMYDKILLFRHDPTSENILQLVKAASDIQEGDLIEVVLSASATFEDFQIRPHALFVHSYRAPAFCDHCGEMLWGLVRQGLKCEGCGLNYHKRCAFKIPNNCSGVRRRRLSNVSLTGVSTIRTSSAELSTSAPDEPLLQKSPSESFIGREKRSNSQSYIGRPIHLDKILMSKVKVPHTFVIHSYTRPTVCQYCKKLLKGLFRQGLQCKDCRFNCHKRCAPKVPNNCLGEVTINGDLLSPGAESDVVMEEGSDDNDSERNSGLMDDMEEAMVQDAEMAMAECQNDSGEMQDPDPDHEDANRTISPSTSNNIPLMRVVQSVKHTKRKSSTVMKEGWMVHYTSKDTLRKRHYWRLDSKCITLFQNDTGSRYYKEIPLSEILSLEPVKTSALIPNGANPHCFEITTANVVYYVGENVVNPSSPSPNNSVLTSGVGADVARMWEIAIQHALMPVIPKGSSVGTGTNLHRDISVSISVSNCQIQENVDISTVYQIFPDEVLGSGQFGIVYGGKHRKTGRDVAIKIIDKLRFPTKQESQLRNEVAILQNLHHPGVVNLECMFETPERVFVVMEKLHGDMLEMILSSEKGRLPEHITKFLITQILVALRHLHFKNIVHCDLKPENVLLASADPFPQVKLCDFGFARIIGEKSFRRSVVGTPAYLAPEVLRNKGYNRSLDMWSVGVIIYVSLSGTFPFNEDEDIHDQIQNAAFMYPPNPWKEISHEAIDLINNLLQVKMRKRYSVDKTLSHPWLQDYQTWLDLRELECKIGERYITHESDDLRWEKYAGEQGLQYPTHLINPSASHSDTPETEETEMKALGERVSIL
Description: as §1

RSK2 = target: T7, RSK2 (Homo sapiens, UniProt P51812)
T7 construct: lines 1-140) and Reaction Biology
T7 sequence (P51812 whole entry): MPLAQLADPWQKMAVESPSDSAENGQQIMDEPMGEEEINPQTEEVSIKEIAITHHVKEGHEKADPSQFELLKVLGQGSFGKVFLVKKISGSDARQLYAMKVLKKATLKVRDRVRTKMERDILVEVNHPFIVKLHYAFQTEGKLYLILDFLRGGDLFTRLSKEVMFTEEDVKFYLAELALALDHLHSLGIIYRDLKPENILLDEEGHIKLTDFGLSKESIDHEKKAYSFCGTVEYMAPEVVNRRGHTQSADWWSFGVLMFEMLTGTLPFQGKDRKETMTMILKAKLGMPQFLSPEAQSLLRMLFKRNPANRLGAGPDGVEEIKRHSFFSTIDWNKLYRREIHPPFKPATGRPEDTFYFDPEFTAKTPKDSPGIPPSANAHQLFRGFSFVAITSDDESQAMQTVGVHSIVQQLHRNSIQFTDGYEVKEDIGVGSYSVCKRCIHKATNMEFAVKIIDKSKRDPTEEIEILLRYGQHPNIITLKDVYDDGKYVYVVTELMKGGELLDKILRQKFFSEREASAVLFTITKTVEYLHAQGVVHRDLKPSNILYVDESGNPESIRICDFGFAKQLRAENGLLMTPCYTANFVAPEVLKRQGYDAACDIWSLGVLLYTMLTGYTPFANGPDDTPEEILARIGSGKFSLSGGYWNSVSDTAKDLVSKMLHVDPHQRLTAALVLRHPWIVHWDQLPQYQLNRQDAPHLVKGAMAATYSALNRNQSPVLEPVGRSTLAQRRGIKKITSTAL
Description: as §1

SGK1 = target: T8, SGK1 (Homo sapiens, UniProt O00141)
T8 construct: lines 1-140) and Reaction Biology
T8 sequence (O00141 1-431): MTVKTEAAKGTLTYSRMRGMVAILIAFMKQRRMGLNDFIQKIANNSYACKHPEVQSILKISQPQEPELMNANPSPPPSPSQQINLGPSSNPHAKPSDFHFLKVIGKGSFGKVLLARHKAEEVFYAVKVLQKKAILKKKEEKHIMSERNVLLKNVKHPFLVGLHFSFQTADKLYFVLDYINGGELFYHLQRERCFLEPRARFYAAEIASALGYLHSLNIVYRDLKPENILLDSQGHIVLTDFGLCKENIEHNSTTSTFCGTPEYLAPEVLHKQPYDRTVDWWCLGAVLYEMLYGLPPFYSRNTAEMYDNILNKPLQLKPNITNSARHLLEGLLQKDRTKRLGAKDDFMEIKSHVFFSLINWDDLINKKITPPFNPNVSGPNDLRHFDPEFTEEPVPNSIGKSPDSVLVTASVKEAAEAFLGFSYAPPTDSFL
Description: as §1

SIK3 = target: T9, SIK3 (Homo sapiens, UniProt Q9Y2K2)
T9 construct: lines 1-140) and Reaction Biology
T9 sequence (Q9Y2K2 whole entry): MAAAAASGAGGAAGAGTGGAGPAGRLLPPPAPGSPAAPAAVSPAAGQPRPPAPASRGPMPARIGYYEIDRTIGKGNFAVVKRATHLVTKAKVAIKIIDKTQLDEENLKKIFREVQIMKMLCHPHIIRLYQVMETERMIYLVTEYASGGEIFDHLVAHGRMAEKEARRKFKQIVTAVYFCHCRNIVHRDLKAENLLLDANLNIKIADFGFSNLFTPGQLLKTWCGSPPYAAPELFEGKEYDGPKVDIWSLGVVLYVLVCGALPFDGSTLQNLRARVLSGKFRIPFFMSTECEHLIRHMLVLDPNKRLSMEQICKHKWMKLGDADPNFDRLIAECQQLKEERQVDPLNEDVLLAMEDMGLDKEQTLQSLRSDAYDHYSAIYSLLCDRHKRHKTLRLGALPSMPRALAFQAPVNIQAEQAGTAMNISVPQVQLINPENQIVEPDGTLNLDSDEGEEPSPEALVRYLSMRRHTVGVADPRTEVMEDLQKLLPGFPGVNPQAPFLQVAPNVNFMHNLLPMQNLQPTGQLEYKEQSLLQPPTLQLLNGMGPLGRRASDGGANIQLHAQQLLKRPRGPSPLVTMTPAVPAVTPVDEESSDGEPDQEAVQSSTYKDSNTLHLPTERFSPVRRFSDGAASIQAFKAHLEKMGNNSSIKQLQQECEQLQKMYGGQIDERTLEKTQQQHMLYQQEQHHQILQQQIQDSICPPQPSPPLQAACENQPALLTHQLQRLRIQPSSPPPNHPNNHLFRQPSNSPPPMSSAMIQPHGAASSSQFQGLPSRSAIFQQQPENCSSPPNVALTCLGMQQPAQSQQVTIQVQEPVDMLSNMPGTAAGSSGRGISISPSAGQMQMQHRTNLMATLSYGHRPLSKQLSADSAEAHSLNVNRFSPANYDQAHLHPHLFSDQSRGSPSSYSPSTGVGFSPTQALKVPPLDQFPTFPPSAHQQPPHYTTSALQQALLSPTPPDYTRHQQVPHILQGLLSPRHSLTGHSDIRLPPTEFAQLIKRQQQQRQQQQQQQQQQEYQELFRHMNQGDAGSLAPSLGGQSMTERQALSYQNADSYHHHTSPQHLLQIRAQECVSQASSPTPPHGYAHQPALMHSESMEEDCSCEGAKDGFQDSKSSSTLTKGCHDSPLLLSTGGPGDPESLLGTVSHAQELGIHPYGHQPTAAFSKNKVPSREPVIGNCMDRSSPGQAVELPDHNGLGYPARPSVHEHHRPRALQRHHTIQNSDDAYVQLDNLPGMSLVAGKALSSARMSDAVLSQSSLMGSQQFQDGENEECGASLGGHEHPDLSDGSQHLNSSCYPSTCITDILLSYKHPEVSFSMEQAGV
Description: as §1

T1 sequence (P49841 whole entry): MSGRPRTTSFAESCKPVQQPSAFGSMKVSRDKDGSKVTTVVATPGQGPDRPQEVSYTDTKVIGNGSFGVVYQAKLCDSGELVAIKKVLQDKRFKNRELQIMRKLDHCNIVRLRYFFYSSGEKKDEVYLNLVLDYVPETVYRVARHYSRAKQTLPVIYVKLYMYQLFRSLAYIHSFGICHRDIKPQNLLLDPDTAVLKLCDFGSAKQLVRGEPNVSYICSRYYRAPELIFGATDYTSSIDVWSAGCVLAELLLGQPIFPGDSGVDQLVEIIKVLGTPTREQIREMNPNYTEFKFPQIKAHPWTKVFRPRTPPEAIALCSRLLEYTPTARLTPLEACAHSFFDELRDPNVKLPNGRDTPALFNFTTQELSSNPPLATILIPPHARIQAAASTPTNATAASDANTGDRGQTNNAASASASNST

Row | Compound | remaining activity at 1 µM (GSK3b) | remaining activity at 1 µM (IKKb) | remaining activity at 1 µM (MELK) | remaining activity at 1 µM (MKK6) | remaining activity at 1 µM (PIM2) | remaining activity at 1 µM (PKD1) | remaining activity at 1 µM (RSK2) | remaining activity at 1 µM (SGK1) | remaining activity at 1 µM (SIK3) | residual activity (GSK3b; 1 μM) | residual activity (IKKb; 1 μM) | residual activity (MELK; 1 μM) | residual activity (MKK6; 1 μM) | residual activity (PIM2; 1 μM) | residual activity (PKD1; 1 μM) | residual activity (RSK2; 1 μM) | residual activity (SGK1; 1 μM) | residual activity (SIK3; 1 μM)
1 | COCCOc1ccc(-c2cn(-c3ccccc3)c3nc[nH]c(=O)c23)cc1 [DMX-5804, 5-[4-(2-methoxy-ethoxy)-phenyl]-7-phenyl-3,7-dihydro-pyrrolo[2,3-d]pyrimidin-4-one] | 102% | 107% | 83% | 112% | 105% | 102% | 93% | 104% | 90% |  |  |  |  |  |  |  |  | 
2 | Oc1ncnc2c1c(-c1ccccc1)cn2-c1ccccc1 [F1386-0303, 5,7-diphenyl-7H-pyrrolo[2,3-d]pyrimidin-4-ol] | 127% | 102% | 90% | 105% | 84% | 103% | 114% | 101% | 110% |  |  |  |  |  |  |  |  | 
3 | Nc1ncc(C(=O)NC2CN(C(=O)C3CC3)C2)c2ccc(-c3cccc(F)c3)nc12 [GNE-495] |  |  |  |  |  |  |  |  |  | 69% | 88% | 82% | 97% | 95% | 68% | 62% | 55% | 87%
4 | O=C1Nc2ccc(I)cc2/C1=C/c1cc(Br)c(O)c(Br)c1 [GW5074] | 42% | 73% | 48% | 81% | 10% | 66% | 49% | 91% | 65% |  |  |  |  |  |  |  |  | 
5 | O=C1Cc2c([nH]c3ccc(Br)cc23)-c2ccccc2N1 [Kenpaullone] | 6% | 103% | 38% | 102% | 67% | 100% |  | 101% | 12% |  |  |  |  |  |  |  |  | 
